In patent US20190100534A1, “Cephem Compounds with Latent Reactive Groups” (Gladius Pharmaceuticals, Inc., priority 2017, published 2019):

Experiments:
[1] = system: KP(ATCC TEM-10/TEM-12); assay type: cell-based, Klebsiella pneumoniae; settings: CAMH broth, 20 μM Apo-Transferrin, 37° C., 18 hours
Experimental: (§1) Sterile technique was used throughout these experiments. Suspensions of organisms were removed from storage (−80° C.) and partially thawed. Partially thawed organisms (1 μL) were inoculated into 3 mL sterile LB Broth in a sterile culture tube and capped, then cultured at 37° C. with shaking for 4-5 hours until the optical density at 600 nm (OD600) was greater than 0.1 on a single beam spectrophotometer.
(§2) The concentration of organisms was adjusted to 0.08-0.1 OD600 (0.5 McFarland units) by dilution with sterile cation-adjusted Meuller-Hinton (CAMH) broth. The suspensions were used within 30 minutes of preparation.
(§3) A stock solution was made of each test compound by measuring 6.4 mg of the compound on an analytical balance and dissolving it in DMSO (1 mL) to get a transparent solution. The solutions were stored at −20° C. and thawed prior to use.
(§4) Sterile CAMH broth (200 μL) containing 20 μM Apo-Transferrin was pipetted into the first row of 8 columns of a sterile, round-bottomed, transparent, 96-well microplate using an 8-channel pipette equipped with sterile tips. One hundred μL was pipetted into the wells of the remaining 11 rows.
(§5) With an 8-channel pipette equipped with sterile tips, 100 μL of the first row solution was transferred to the second row and mixed. The process was repeated for the second to third rows and continued through row 11. One hundred μL from row 11 was removed and discarded so that all 12 rows contained 100 μL. Row 12 contained no compound and rows 1-11 contained 64, 32, 16, 8, 4, 2, 1, 0.5, 0.25, 0.125, […] of a given compound.
(§6) Inoculant suspensions (0.5 μL) were added to the 12 wells of each column. The plates were then covered and incubated at 37° C. overnight for 18 hours.
(§7) For each organism the MIC was determined by identifying the transparent well with the lowest test compound concentration.

[2] = system: CF (RR -1); test: MIC determination; assay type: cell-based, Citrobacter freundii; settings: CAMH broth, 20 μM Apo-Transferrin, 37° C., 18 hours
Experimental: as §1, §2, §3, §4, §5, §6, §7

[3] = system: ENA (URMC-2); test: MIC determination; assay type: cell-based, Enterobacter aerogenes; settings: Klebsiella aerogenes, CAMH broth, 20 μM Apo-Transferrin, 37° C., 18 hours, read-out: Minimum Inhibitory Concentrations, ENA (URMC-2)
Experimental: as §1, §2, §3, §4, §5, §6, §7

[4] = system: ENA (URMC-1); test: MIC determination; assay type: cell-based, Enterobacter aerogenes; settings: Klebsiella aerogenes, CAMH broth, 20 μM Apo-Transferrin, 37° C., 18 hours, read-out: Minimum Inhibitory Concentrations, ENA (URMC-1)
Experimental: as §1, §2, §3, §4, §5, §6, §7

[5] = system: various enteric bacteria; test: MIC determination, summary in text; assay type: cell-based; settings: review of Tables 3-1 to 3-6
Experimental: as §1, §2, §3, §4
To each well of the first row was pipetted 2.0 μL of the 6.4 mg/mL stock test compound stock solution to give 1:100 dilutions and a final concentration of 64 μg/mL and mixed.
as §5, §6, §7

[6] = system: PM (RR -1); test: MIC determination; assay type: cell-based, Proteus mirabilis; settings: CAMH broth, 20 μM Apo-Transferrin, 37° C., 18 hours
Experimental: as §1, §2, §3, §4, §5, §6, §7

[7] = system: KOXY (Klebsiella oxytoca); test: MIC determination; assay type: cell-based; settings: Klebsiella oxytoca, CAMH broth, 20 μM Apo-Transferrin, 37° C., 18 hours, read-out: Minimum Inhibitory Concentrations, KOXY
In short: (§8)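 Broth microdilution in cation-adjusted Mueller-Hinton broth with 20 μM apo-transferrin, two-fold compound series from 64 μg/mL, inoculum adjusted to 0.5 McFarland from 4-5 h LB cultures. Plates incubated 18 h at 37 °C. MIC taken as lowest concentration leaving a clear well.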

[8] = system: EC (Escherichia coli); test: MIC determination; assay type: cell-based; settings: 20 μM Apo-Transferrin, 37° C., 18 hours; for MIC: Escherichia coli, first EC column of Table 3-1, CAMH broth, read-out: Minimum Inhibitory Concentrations, EC; for Minimum Inhibitory Concentrations, EC: Table 3-1, CAMH broth
In short: as §8

[9] = system: KP (Klebsiella pneumoniae); test: MIC determination; assay type: cell-based; settings: 20 μM Apo-Transferrin, 37° C., 18 hours
In short: as §8

[10] = system: EC(KB2 CTX-M-14); test: MIC determination; assay type: cell-based, Escherichia coli; settings: Escherichia coli, 18 h, read-out: Minimum Inhibitory Concentrations, EC(KB2 CTX-M-14)
In short: as §8

[11] = system: EC(KB1 CTX-M-14); test: MIC determination; assay type: cell-based, Escherichia coli; settings: Escherichia coli, 18 h, read-out: Minimum Inhibitory Concentrations, EC(KB1 CTX-M-14)
In short: as §8

[12] = system: KP(ATCC SHV-18); test: MIC determination; assay type: cell-based, Klebsiella pneumoniae; settings: CAMH broth, 20 μM Apo-Transferrin, 37° C., 18 hours
In short: as §8

[13] = system: ENC (Enterobacter cloacae); test: MIC determination; assay type: cell-based; settings: CAMH broth, 20 μM Apo-Transferrin, 37° C., 18 hours
In short: as §8

[14] = system: CF (Citrobacter freundii); test: MIC determination; assay type: cell-based; settings: Citrobacter freundii, CAMH broth, 20 μM Apo-Transferrin, 37° C., 18 hours, read-out: Minimum Inhibitory Concentrations, CF
In short: as §8

[15] = system: SM (Serratia marcescens); test: MIC determination; assay type: cell-based; settings: Serratia marcescens, CAMH broth, 20 μM Apo-Transferrin, 37° C., 18 hours, read-out: Minimum Inhibitory Concentrations, SM
In short: as §8

[16] = system: PM (Proteus mirabilis); test: MIC determination; assay type: cell-based; settings: Proteus mirabilis, CAMH broth, 20 μM Apo-Transferrin, 37° C., 18 hours, read-out: Minimum Inhibitory Concentrations, PM
In short: as §8

[17] = system: various Pseudomonas strains; test: MIC determination, summary in text; assay type: cell-based, Pseudomonas aeruginosa; settings: review of Tables 1-1 and 1-2
Experimental: as §1, §2, §3, §4, §5, §6, §7

[18] = first KP column of Table 3-1, CAMH broth
[19] = second KP column of Table 3-1, CAMH broth

Row | SMILES | Minimum Inhibitory Concentrations, KP(ATCC TEM-10/TEM-12) [1] | Mimimum Inhibitory Concentrations, CF (RR -1) [2] | MIC [3] | MIC [4] | MICs for various enteric bacteria, in words [5] | Mimimum Inhibitory Concentrations, PM (RR -1) [6] | MIC [7] | MIC [8] | Minimum Inhibitory Concentrations, EC [8] | Minimum Inhibitory Concentrations, KP [9, 18] | Minimum Inhibitory Concentrations, KP [9, 19] | MIC [10] | MIC [11] | Minimum Inhibitory Concentrations, KP(ATCC SHV-18) [12] | Mimimum Inhibitory Concentrations, ENC [13] | MIC [14] | MIC [15] | MIC [16] | MICs for various Pseudomonas strains, in words [17]
1 | CC(C)(O/N=C(\C(=O)N[C@@H]1C(=O)N2C(C(=O)O)=C(C=Cc3ccc(C[N+]4(C)Cc5cc(O)c(O)c(Cl)c5C4)cc3)CS[C@H]12)c1csc(N)n1)C(=O)O (mixture of isomers) [Compound 432, 2-(4-((E/Z)-2-((6R,7R)-7-((Z)-2-(2-aminothiazol-4-yl)-2-(((2-carboxypropan-2-yl)oxy)imino)acetamido)-2-carboxy-8-oxo-5-thia-1-azabicyclo[4.2.0]oct-2-en-3-yl)vinyl)benzyl)-4-chloro-5,6-dihydroxy-2-methylisoindolin-2-ium] | 8 microgram/mL | 0.5 microgram/mL | 0.25 mg/L | 1 mg/L | low microgram/mL MICs | ≤0.06 microgram/mL | 0.5 mg/L | 0.25 mg/L | 0.25 microgram/mL | 1 microgram/mL | 1 microgram/mL |  |  |  |  |  |  |  | 
2 | C#CC[N+]1(Cc2ccc(C=CC3=C(C(=O)O)N4C(=O)[C@@H](NC(=O)/C(=N\OC(C)(C)C(=O)O)c5csc(N)n5)[C@H]4SC3)cc2)CCc2cc(O)c(O)cc2C1 (mixture of isomers) [Compound 446, 2-(4-((E/Z)-2-((6R,7R)-7-((Z)-2-(2-aminothiazol-4-yl)-2-(((2-carboxypropan-2-yl)oxy)imino)acetamido)-2-carboxy-8-oxo-5-thia-1-azabicyclo[4.2.0]oct-2-en-3-yl)vinyl)benzyl)-6,7-dihydroxy-2-(prop-2-yn-1-yl)-1,2,3,4-tetrahydroisoquinolin-2-ium] | 16 microgram/mL |  |  |  |  |  |  | 0.5 mg/L | 0.5 microgram/mL |  |  | 8 mg/L | 2 mg/L | 1 microgram/mL | 4 microgram/mL |  |  |  | 
3 | CC(C)(O/N=C(\C(=O)N[C@@H]1C(=O)N2C(C(=O)O)=C(C=Cc3ccc(C[N+]4(C)CCc5ccc(O)c(O)c5C4)cc3)CS[C@H]12)c1csc(N)n1)C(=O)O (mixture of isomers) [Compound 442, 2-(4-((E/Z)-2-((6R,7R)-7-((Z)-2-(2-aminothiazol-4-yl)-2-(((2-carboxypropan-2-yl)oxy)imino)acetamido)-2-carboxy-8-oxo-5-thia-1-azabicyclo[4.2.0]oct-2-en-3 yl)vinyl)benzyl)-7,8-dihydroxy-2-methyl-1,2,3,4-tetrahydroisoquinolin-2-ium] | 4 microgram/mL | 0.25 microgram/mL | 1 mg/L | 0.5 mg/L |  | ≤0.06 microgram/mL |  | 0.25 mg/L | 0.25 microgram/mL |  |  |  | 1 mg/L | 0.5 microgram/mL | 8 microgram/mL |  |  |  | 
4 | CC(C)(O/N=C(\C(=O)N[C@@H]1C(=O)N2C(C(=O)O)=C(C=Cc3ccc(C[n+]4ccc(-c5ccc(O)c(O)c5)cc4)cc3)CS[C@H]12)c1csc(N)n1)C(=O)O (mixture of isomers) [Compound 412, 1-(4-((E/Z)-2-((6R,7R)-7-((Z)-2-(2-aminothiazol-4-yl)-2-(((2-carboxypropan-2-yl)oxy)imino)acetamido)-2-carboxy-8-oxo-5-thia-1-azabicyclo[4.2.0]oct-2-en-3-yl)vinyl)benzyl)-4-(3,4-dihydroxyphenyl)pyridin-1-ium] | 32 microgram/mL | ≤0.06 microgram/mL | 0.13 mg/L | 0.25 mg/L |  | ≤0.06 microgram/mL | 0.5 mg/L |  |  | 2 microgram/mL | 2 microgram/mL | 1 mg/L | 0.5 mg/L | 1 microgram/mL | 4 microgram/mL | ≤ 0.06 mg/L | 0.5 mg/L | ≤ 0.06 mg/L | 
5 | CC(C)(O/N=C(\C(=O)N[C@@H]1C(=O)N2C(C(=O)O)=C(C=Cc3ccc(C[N+]4(C)Cc5c(Cl)c(O)c(O)c(Cl)c5C4)cc3)CS[C@H]12)c1csc(N)n1)C(=O)O (mixture of isomers) [Compound 431, 2-(4-((E/Z)-2-((6R,7R)-7-((Z)-2-(2-aminothiazol-4-yl)-2-(((2-carboxypropan-2-yl)oxy)imino)acetamido)-2-carboxy-8-oxo-5-thia-1-azabicyclo[4.2.0]oct-2-en-3-yl)vinyl)benzyl)-4,7-dichloro-5,6-dihydroxy-2-methylisoindolin-2-ium] | 16 microgram/mL | 1 microgram/mL | 0.5 mg/L | 0.5 mg/L | low microgram/mL MICs | ≤0.06 microgram/mL | 0.13 mg/L | 0.5 mg/L | 0.5 microgram/mL | 0.13 microgram/mL | 0.13 microgram/mL |  |  |  |  |  |  |  | low microgram/mL MICs
6 | CC(C)(O/N=C(\C(=O)N[C@@H]1C(=O)N2C(C(=O)O)=C(C=Cc3ccc(C[N+]4(C)CCc5c(Cl)c(O)c(O)c(Cl)c5C4)cc3)CS[C@H]12)c1csc(N)n1)C(=O)O (mixture of isomers) [Compound 429, 2-(4-((E/Z)-2-((6R,7R)-7-((Z)-2-(2-aminothiazol-4-yl)-2-(((2-carboxypropan-2-yl)oxy)imino)acetamido)-2-carboxy-8-oxo-5-thia-1-azabicyclo[4.2.0]oct-2-en-3-yl)vinyl)benzyl)-5,8 dichloro-6,7-dihydroxy-2-methyl-1,2,3,4-tetrahydroisoquinolin-2-ium] | 4 microgram/mL | ≤0.06 microgram/mL | 1 mg/L | 2 mg/L |  | ≤0.06 microgram/mL | 0.5 mg/L |  |  | 1 microgram/mL | 1 microgram/mL | 1 mg/L |  |  |  |  |  |  | 
